Biological target: T1, Human ATX protein (Homo sapiens, UniProt Q13822)
T1 construct: made in house
Test: Autotaxin (ATX) assay, FRET with FS-3 substrate
Type: biochemical
Conditions: upper bound bins (no greater than 100, 250 or 500 nM); FS-3 2 μM, ATX 1.0 μg/mL
Procedure, shortened: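 Hydrolysis of the FRET substrate FS-3 (2 μM final) unquenches fluorescein, read at excitation 485 nm and emission 538 nm after 2 h at room temperature, protected from light. Purified human ATX (1.0 μg/mL) and compound were first incubated for 30 min in pH 7.4 Tris/salt buffer containing 1 mg/mL fatty acid-free BSA.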

`CC1(C)CNCCN1C(=O)c1cc2n(n1)CCCN(C(=O)OCc1cc(Cl)cc(C(F)(F)F)c1)C2` [Example 207, 3-chloro-5-(trifluoromethyl)benzyl 2-(2,2-dimethylpiperazine-1-carbonyl)-7,8-dihydro-4H-pyrazolo[1,5-a][1,4]diazepine-5(6H)-carboxylate] and `O=C(OCc1cc(Cl)cc(C(F)(F)F)c1)N1CCCn2nc(C(=O)N3CCNCC34CCC4)cc2C1` [Example 175] cannot be ordered by IC50: no more than 100 nM for the first, no more than 100 nM for the second.

`CC(=O)c1cc2n(n1)CCN(C(=O)OCc1cc(C(F)(F)F)cc(C(F)(F)F)c1)C2` [Example 401, 3,5-bis(trifluoromethyl)benzyl 2-acetyl-6,7-dihydropyrazolo[1,5-a]pyrazine-5(4H)-carboxylate] and `NCCNC(=O)c1cc2n(n1)CCN(C(=O)OCc1cc(C(F)(F)F)cc(C(F)(F)F)c1)C2` [Example 425] cannot be ordered by IC50: no more than 500 nM for the first, no more than 100 nM for the second.

`CC1(C)C(NCc2cc3n(n2)CCCN(C(=O)OCc2cc(C(F)(F)F)cc(C(F)(F)F)c2)C3)CC1C(=O)O` (centres unmarked) [Example 287, 3-(((5-(((3,5-bis(trifluoromethyl)benzyl)oxy)carbonyl)-5,6,7,8-tetra-hydro-4H-pyrazolo[1,5-a][1,4]diazepin-2-yl)methyl)amino)-2,2-dimethylcyclo-butanecarboxylic acid] and `O=C(NCC1CC1)c1cc2n(n1)CCCN(C(=O)OCc1cc(C(F)(F)F)cc(C(F)(F)F)c1)C2` [Example 502] cannot be ordered by IC50: no more than 500 nM for the first, no more than 100 nM for the second.

`CC1CC(Nc2cc3n(n2)CCCN(C(=O)OCc2cc(C(F)(F)F)cc(C(F)(F)F)c2)C3)CC(C)N1` (centres unmarked) [Example 322] and `CC1CN(C(=O)c2cc3n(n2)CCCN(C(=O)OCc2cc(C(F)(F)F)cc(C(F)(F)F)c2)C3)CC(C)N1` (centres unmarked) [Example 223] cannot be ordered by IC50: no more than 100 nM for the first, no more than 100 nM for the second.

`O=C(OCc1cc(Cl)cc(C(F)(F)F)c1)N1CCCn2nc(C(=O)N3CC4CCC3CN4)cc2C1` (centres unmarked) [Example 197] and `O=C(OCc1cc(Cl)cc(C(F)(F)F)c1)N1CCn2nc(C(=O)N3CC4CCC(C3)N4)cc2C1` [Example 429] cannot be ordered by IC50: no more than 100 nM for the first, no more than 100 nM for the second.

`O=C(OCc1cc(C(F)(F)F)cc(C(F)(F)F)c1)N1CCCn2cncc2C1` [Example 132, 3,5-Bis(trifluoromethyl)benzyl 6,7-dihydro-5H-imidazo[1,5-a][1,4]diazepine-8(9H)-carboxylate] and `N#Cc1cc2n(n1)CCCN(C(=O)OCc1cc(C(F)(F)F)cc(C(F)(F)F)c1)C2` [Example 125, 3,5-Bis(trifluoromethyl)benzyl 2-cyano-7,8-dihydro-4H-pyrazolo[1,5-a][1,4]diazepine-5(6H)-carboxylate] cannot be ordered by IC50: no more than 100 nM for the first, no more than 100 nM for the second.

`CN1CC=C(c2cc3n(n2)CCCN(C(=O)OCc2cc(C(F)(F)F)cc(C(F)(F)F)c2)C3)CC1` [Example 371, 3,5-bis(trifluoromethyl)benzyl 2-(1-methyl-1,2,3,6-tetrahydropyridin-4-yl)-7,8-dihydro-4H-pyrazolo[1,5-a][1,4]diazepine-5(6H)-carboxylate] and `O=C(OCc1cc(C(F)(F)F)cc(C(F)(F)F)c1)N1CCCn2nc(C3CCNC3)cc2C1` (centres unmarked) [Example 384] cannot be ordered by IC50: no more than 100 nM for the first, no more than 250 nM for the second.

`CN1CCN(C(=O)c2cc3n(n2)CCN(C(=O)OCc2cc(Cl)cc(C(F)(F)F)c2)C3)C(C)(C)C1` [Example 495] and `CCN1CCN(C(=O)c2cc3n(n2)CCCN(C(=O)OCc2cc(Cl)cc(C(F)(F)F)c2)C3)C2(CC2)C1` [Example 179] cannot be ordered by IC50: no more than 100 nM for the first, no more than 100 nM for the second.

`O=C(OCc1cc(C(F)(F)F)cc(C(F)(F)F)c1)N1CCCn2nc(C(=O)N3CCC(O)CC3)cc2C1` [Example 31, 3,5-Bis(trifluoromethyl)benzyl 2-(4-hydroxypiperidine-1-carbonyl)-7,8-dihydro-4H-pyrazolo[1,5-a][1,4]diazepine-5(6H)-carboxylate] and `O=C(O)C1CCN(C(=O)c2cc3n(n2)CCN(C(=O)OCc2cc(C(F)(F)F)cc(C(F)(F)F)c2)C3)CC1` [Example 418] cannot be ordered by IC50: no more than 100 nM for the first, no more than 100 nM for the second.

`O=C(OCc1cc(Cl)cc(C(F)(F)F)c1)N1CCCn2nc(C(=O)N3CCC4(CCNCC4)C3)cc2C1` [Example 169] and `O=C(OCc1cc(Cl)cc(C(F)(F)F)c1)N1CCCn2nc(C(=O)N3CCNCC3)cc2C1` [Example 158, 3-chloro-5-(trifluoromethyl)benzyl 2-(piperazine-1-carbonyl)-7,8-dihydro-4H-pyrazolo[1,5-a][1,4]diazepine-5(6H)-carboxylate] cannot be ordered by IC50: no more than 100 nM for the first, no more than 100 nM for the second.

`O=C(O)Cn1cc(-c2cc3n(n2)CCCN(C(=O)OCc2cc(C(F)(F)F)cc(C(F)(F)F)c2)C3)cn1` [Example 412] and `CC(O)c1cc2n(n1)CCCN(C(=O)OCc1cc(C(F)(F)F)cc(C(F)(F)F)c1)C2` (centres unmarked) [Example 146, 3,5-Bis(trifluoromethyl)benzyl 2-(1-hydroxyethyl)-7,8-dihydro-4H-pyrazolo[1,5-a][1,4]diazepine-5(6H)-carboxylate] cannot be ordered by IC50: no more than 100 nM for the first, no more than 100 nM for the second.

`CCOC(=O)c1nn2c(c1Br)CN(C(=O)OCc1cc(C(F)(F)F)cc(C(F)(F)F)c1)CCC2` [Example 114, 5-(3,5-Bis(trifluoromethyl)benzyl) 2-ethyl 3-bromo-7,8-dihydro-4H-pyrazolo[1,5-a][1,4]diazepine-2,5(6H)-dicarboxylate] and `CCOC(=O)c1cc2n(n1)CC(O)CN(C(=O)OCc1cc(C(F)(F)F)cc(C(F)(F)F)c1)C2` (centres unmarked) [Example 409] cannot be ordered by IC50: no more than 100 nM for the first, no more than 100 nM for the second.

`CC(C)(C)OC(=O)N1CCN(C(=O)c2cc3n(n2)CCN(C(=O)OCc2cc(C(F)(F)F)cc(C(F)(F)F)c2)C3)CC1(C)C` [Example 466] and `CC1CN(C(=O)c2cc3n(n2)CCN(C(=O)OCc2cc(C(F)(F)F)cc(C(F)(F)F)c2)C3)CCN1C(=O)OC(C)(C)C` (centres unmarked) [Example 467] cannot be ordered by IC50: no more than 100 nM for the first, no more than 100 nM for the second.

`O=C(OCc1cc(Cl)cc(Cl)c1)N1CCCn2nc(C(=O)N3CCNCC3)cc2C1` [Example 24, 3,5-Dichlorobenzyl 2-(piperazine-1-carbonyl)-7,8-dihydro-4H-pyrazolo[1,5-a][1,4]diazepine-5(6H)-carboxylate] and `NC1CCN(C(=O)c2cc3n(n2)CCCN(C(=O)OCc2cc(Cl)cc(Cl)c2)C3)CC1` [Example 26, 3,5-Dichlorobenzyl 2-(4-aminopiperidine-1-carbonyl)-7,8-dihydro-4H-pyrazolo[1,5-a][1,4]diazepine-5(6H)-carboxylate] cannot be ordered by IC50: no more than 100 nM for the first, no more than 100 nM for the second.

`CCC1CN(C(=O)c2cc3n(n2)CCCN(C(=O)OCc2cc(Cl)cc(C(F)(F)F)c2)C3)CCN1` (centres unmarked) [Example 206] and `O=C(O)C1CN(C(=O)c2cc3n(n2)CCCN(C(=O)OCc2cc(Cl)cc(C(F)(F)F)c2)C3)CCN1` (centres unmarked) [Example 227] cannot be ordered by IC50: no more than 100 nM for the first, no more than 100 nM for the second.

`O=C(OCc1cc(C(F)(F)F)cc(C(F)(F)F)c1)N1CCCn2nc(N3CCN4CCC[C@H]4C3)cc2C1` [Example 346] and `CN1CCN(S(=O)(=O)c2cc3n(n2)CCCN(C(=O)OCc2cc(C(F)(F)F)cc(C(F)(F)F)c2)C3)CC1` [Example 308] cannot be ordered by IC50: no more than 100 nM for the first, no more than 100 nM for the second.

`CCN1CCN(C(=O)c2cc3n(n2)CCCN(C(=O)OCc2cc(C(F)(F)F)cc(C(F)(F)F)c2)C3)C2(CC2)C1` [Example 237] and `CN1CCN(C(=O)c2cc3n(n2)CCCN(C(=O)OCc2cc(C(F)(F)F)cc(C(F)(F)F)c2)C3)C2(CCCC2)C1` [Example 238] cannot be ordered by IC50: no more than 100 nM for the first, no more than 100 nM for the second.

`O=C(O)c1cc2n(n1)CC(O)CN(C(=O)OCc1cc(C(F)(F)F)cc(C(F)(F)F)c1)C2` (centres unmarked) [Example 421] and `O=C(O)c1cc2n(n1)CCCN(C(=O)CCc1cc(C(F)(F)F)cc(C(F)(F)F)c1)C2` [Example 82, 5-(3-(3,5-bis(Trifluoromethyl)phenyl)propanoyl)-5,6,7,8-tetrahydro-4H-pyrazolo[1,5-a][1,4]diazepine-2-carboxylic acid] cannot be ordered by IC50: no more than 500 nM for the first, no more than 100 nM for the second.

`CC(c1cc2n(n1)CCCN(C(=O)OCc1cc(Cl)cc(Cl)c1)C2)N1C2CCCC1CCC2` (centres unmarked) [Example 453] and `O=C(CCc1cc(Cl)cc(Cl)c1)N1CCn2nc(C(=O)N3C4CCCC3CCC4)cc2C1` [Example 94, 1-(2-(9-Azabicyclo[3.3.1]nonane-9-carbonyl)-6,7-dihydropyrazolo[1,5-a]pyrazin-5(4H)-yl)-3-(3,5-dichlorophenyl)propan-1-one] cannot be ordered by IC50: no more than 250 nM for the first, no more than 100 nM for the second.

`CN1CCN(C(=O)c2cc3n(n2)CCCN(C(=O)OCc2cc(Cl)cc(C(F)(F)F)c2)C3)CC1C(=O)O` (centres unmarked) [Example 185] and `O=C(OCc1cc(Cl)cc(C(F)(F)F)c1)N1CCCn2nc(C(=O)N3CCCNCC3)cc2C1` [Example 193] cannot be ordered by IC50: no more than 100 nM for the first, no more than 100 nM for the second.

`O=C(CN1CCCC1)c1cc2n(n1)CCCN(C(=O)OCc1cc(Cl)cc(C(F)(F)F)c1)C2` [Example 273] and `CCOC(=O)c1cc2n(n1)CCCN(C(=O)OCc1cc(Cl)cc(C(F)(F)F)c1)C2` [Example 404] cannot be ordered by IC50: no more than 100 nM for the first, no more than 100 nM for the second.

`O=C(OCc1cc(C(F)(F)F)cc(C(F)(F)F)c1)N1CCn2c(nnc2C(F)(F)F)C1` [Example 134, 3,5-Bis(trifluoromethyl)benzyl 3-(trifluoromethyl)-5,6-dihydro-[1,2,4]triazolo[4,3-a]pyrazine-7(8H)-carboxylate] and `CC(N)c1cc2n(n1)CCN(C(=O)OCc1cc(C(F)(F)F)cc(C(F)(F)F)c1)C2` (centres unmarked) [Example 395, 3,5-bis(Trifluoromethyl)benzyl 2-(1-aminoethyl)-6,7-dihydropyrazolo[1,5-a]pyrazine-5(4H)-carboxylate] cannot be ordered by IC50: no more than 500 nM for the first, no more than 100 nM for the second.

`O=C(OCc1cc(Cl)cc(C(F)(F)F)c1)N1CCn2nc(NC3CCNCC3)cc2C1` [Example 274, 3-chloro-5-(trifluoromethyl)benzyl 2-(piperidin-4-ylamino)-6,7-dihydropyrazolo[1,5-a]pyrazine-5(4H)-carboxylate] and `O=C(NC1CCCCC1)c1cc2n(n1)CCN(C(=O)OCc1cc(C(F)(F)F)cc(C(F)(F)F)c1)C2` [Example 492] cannot be ordered by IC50: no more than 100 nM for the first, no more than 100 nM for the second.

With `CN1CCN(C(=O)c2cc3n(n2)CCCN(C(=O)OCc2cc(Cl)cc(Cl)c2)C3)CC1` [Example 25, 3,5-Dichlorobenzyl 2-(4-methylpiperazine-1-carbonyl)-7,8-dihydro-4H-pyrazolo[1,5-a][1,4]diazepine-5(6H)-carboxylate] the IC50 was no more than 100 nM.

From patent US20160039825A1 (BIOGEN MA INC., priority 2013, published 2016)
